Laboratory results as given in US11306079B2, “3-(5-amino-pyrazin-2-yl)-benzenesulfonamide derivatives and related compounds as PI3K-gamma kinase inhibitors” (Incyte Corporation, priority 2017, dated 2022).
Counter-ions that a name gives are not always drawn.

Key:
[1] = biological target: PI3Kγ (p110γ) Recombinant Human Protein (Homo sapiens (Human), UniProt P48736); test: PI3K-γ Scintillation Proximity Assay; format: biochemical; conditions: 20 μM PIP2, 2 μM ATP, 13 nM PI3Kγ, 120 min, room temperature
Chain of PI3Kγ (p110γ) Recombinant Human Protein (P48736 whole entry): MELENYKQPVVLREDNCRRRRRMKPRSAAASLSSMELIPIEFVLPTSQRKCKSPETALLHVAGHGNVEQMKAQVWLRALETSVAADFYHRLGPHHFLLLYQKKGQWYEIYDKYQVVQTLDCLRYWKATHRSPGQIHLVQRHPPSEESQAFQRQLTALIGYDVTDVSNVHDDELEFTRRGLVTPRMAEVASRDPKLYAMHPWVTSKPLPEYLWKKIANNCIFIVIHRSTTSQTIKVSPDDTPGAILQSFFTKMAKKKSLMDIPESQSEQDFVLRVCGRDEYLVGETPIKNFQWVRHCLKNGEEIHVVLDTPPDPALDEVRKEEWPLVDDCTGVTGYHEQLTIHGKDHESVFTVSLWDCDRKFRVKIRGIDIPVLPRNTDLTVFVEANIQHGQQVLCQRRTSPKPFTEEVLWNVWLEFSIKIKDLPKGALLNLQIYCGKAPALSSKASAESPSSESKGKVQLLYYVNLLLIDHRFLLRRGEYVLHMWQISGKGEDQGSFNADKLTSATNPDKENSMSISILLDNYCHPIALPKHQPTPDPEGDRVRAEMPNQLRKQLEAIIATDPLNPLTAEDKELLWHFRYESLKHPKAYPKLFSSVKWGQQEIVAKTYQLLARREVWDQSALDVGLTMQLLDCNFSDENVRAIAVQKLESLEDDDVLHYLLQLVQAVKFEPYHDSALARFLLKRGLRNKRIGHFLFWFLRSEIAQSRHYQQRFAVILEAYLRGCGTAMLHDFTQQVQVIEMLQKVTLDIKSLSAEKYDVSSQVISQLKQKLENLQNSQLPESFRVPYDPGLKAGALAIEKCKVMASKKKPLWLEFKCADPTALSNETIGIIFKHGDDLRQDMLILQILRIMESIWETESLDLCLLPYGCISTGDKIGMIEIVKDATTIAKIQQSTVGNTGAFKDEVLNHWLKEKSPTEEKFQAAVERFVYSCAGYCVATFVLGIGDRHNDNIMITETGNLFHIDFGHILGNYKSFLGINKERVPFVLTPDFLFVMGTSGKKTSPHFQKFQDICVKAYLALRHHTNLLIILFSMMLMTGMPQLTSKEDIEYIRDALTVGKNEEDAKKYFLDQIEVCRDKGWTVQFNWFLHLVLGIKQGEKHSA
Method in brief: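 Recombinant human p110γ (13 nM) phosphorylated 20 μM PIP2 with 2 μM ATP plus [γ-33P]ATP in 20 mM MOPS pH 6.7, 10 mM MgCl2, 5 mM DTT, 0.03% CHAPS, 2% DMSO, 120 min at room temperature. Radiolabelled product was captured on WGA SPA beads and counted. IC50 came from curves of percent solvent-control activity.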

[2] = biological target: PI3Kδ (p110δ/p85α) Recombinant Human Protein (Homo sapiens (Human), UniProt O00329); test: PI3Kδ Scintillation Proximity Assay; format: biochemical; conditions: 20 μM PIP2, 2 μM ATP, 3.4 nM PI3Kδ, 120 min, room temperature
Chain of PI3Kδ (p110δ/p85α) Recombinant Human Protein (O00329 whole entry): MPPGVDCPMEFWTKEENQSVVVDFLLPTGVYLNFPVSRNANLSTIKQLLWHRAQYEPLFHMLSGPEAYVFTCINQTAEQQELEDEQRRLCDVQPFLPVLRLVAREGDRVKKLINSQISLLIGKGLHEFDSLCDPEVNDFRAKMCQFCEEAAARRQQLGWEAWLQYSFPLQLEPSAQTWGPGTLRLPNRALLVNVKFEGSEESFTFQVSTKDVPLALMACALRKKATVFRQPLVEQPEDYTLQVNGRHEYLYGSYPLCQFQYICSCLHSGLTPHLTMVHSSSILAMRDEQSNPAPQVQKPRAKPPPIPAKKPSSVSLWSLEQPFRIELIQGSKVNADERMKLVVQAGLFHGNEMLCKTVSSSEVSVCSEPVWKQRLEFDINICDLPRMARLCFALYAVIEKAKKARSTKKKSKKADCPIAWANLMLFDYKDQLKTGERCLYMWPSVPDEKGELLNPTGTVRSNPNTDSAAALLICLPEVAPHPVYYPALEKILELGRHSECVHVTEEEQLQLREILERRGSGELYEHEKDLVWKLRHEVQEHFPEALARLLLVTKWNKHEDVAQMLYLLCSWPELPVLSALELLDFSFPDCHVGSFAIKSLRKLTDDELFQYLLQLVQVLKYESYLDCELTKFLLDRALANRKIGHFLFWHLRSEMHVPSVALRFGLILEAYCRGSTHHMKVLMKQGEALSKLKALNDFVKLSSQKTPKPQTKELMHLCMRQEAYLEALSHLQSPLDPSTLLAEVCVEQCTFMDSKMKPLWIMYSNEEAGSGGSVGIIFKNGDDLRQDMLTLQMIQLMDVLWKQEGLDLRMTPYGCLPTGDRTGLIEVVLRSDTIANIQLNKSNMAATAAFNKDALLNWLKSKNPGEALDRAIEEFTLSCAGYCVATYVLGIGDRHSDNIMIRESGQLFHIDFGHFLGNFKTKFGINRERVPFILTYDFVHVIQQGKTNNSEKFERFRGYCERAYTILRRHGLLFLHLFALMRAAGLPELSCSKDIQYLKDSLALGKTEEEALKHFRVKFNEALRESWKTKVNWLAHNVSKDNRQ
Chain of PI3Kδ (p110δ/p85α) Recombinant Human Protein (P27986 whole entry partner): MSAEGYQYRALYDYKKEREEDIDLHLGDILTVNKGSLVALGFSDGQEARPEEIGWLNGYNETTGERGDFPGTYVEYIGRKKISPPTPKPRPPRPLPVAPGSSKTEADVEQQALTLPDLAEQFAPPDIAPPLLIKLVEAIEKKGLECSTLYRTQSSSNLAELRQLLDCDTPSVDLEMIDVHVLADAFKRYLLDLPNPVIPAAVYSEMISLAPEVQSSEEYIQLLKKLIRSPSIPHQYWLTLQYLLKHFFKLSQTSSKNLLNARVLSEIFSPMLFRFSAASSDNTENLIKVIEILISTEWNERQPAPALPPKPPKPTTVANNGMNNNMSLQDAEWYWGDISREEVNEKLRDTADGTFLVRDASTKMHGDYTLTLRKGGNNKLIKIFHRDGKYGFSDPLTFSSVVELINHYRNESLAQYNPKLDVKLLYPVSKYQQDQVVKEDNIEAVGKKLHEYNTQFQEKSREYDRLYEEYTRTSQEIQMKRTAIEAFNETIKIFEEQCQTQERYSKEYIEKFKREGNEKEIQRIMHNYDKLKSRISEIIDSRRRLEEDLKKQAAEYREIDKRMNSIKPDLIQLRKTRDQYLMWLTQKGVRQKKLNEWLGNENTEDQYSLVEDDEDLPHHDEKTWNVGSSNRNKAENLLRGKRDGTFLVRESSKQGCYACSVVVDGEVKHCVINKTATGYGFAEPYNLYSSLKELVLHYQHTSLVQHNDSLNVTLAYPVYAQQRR
Method in brief: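 Recombinant human p110δ/p85α (3.4 nM) phosphorylates 20 μM di-octanoyl PIP2 using 2 μM ATP spiked with [γ-33P]ATP, 120 min, room temperature, pH 6.7, 2% DMSO. Product measured by scintillation proximity; IC50 from dose-response fit.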

[3] = tested on: Phosphorylated Ribosomal Protein S6 (RPS6) in THP-1 cells; test: THP-1 RPS6 ELISA Assay; format: cell-based; conditions: Homo sapiens; serum starved THP-1 cells, 2 hours with compound, 10 nM MCP-1 for 15 minutes, Phospho-RPS6 ELISA; read-out: PI3Kγ_THP1_RPS6_ELISA IC50
Method in brief: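 Serum-starved THP-1 cells (2×10^5/well, RPMI) preincubated with compound 2 h at 37° C, then stimulated with 10 nM MCP-1 for 15 min. Lysates assayed by phospho-RPS6 ELISA, absorbance 450 nm (540 nm correction); IC50 from percent inhibition versus log concentration.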

SMILES | IC50 [1] [nM] | IC50 [2] [nM] | IC50 [3] [nM]
O=C(O)C(F)(F)F.[2H]C([2H])([2H])c1ccc(S(=O)(=O)NC23CNC(C2)C3)cc1-c1cnc(N)c(-c2cnc(C)s2)n1 [Example 54, 3-(5-Amino-6-(2-methylthiazol-5-yl)pyrazin-2-yl)-N-(2-azabicyclo[2.1.1]hexan-4-yl)-4-(methyl-d3)benzenesulfonamide trifluoroacetate salt] | ≤ 100 | ≤ 100 | ≤ 500
[2H]C([2H])([2H])c1ccc(S(=O)(=O)NC23CCN(CC2)C3)cc1-c1cnc(N)c(-n2cncn2)n1 [Example 90, 3-(5-amino-6-(1H-1,2,4-triazol-1-yl)pyrazin-2-yl)-N-(1-azabicyclo[2.2.1]heptan-4-yl)-4-(methyl-d3)benzenesulfonamide] | ≤ 100 | ≤ 100 | ≤ 100
[2H]C([2H])([2H])c1ccc(S(=O)(=O)NC23COC(CO)(C2)C3)cc1-c1cnc(N)c(-c2cnc(C3CC3)s2)n1 [Example 61, 3-(5-Amino-6-(2-cyclopropylthiazol-5-yl)pyrazin-2-yl)-N-(1-(hydroxymethyl)-2-oxabicyclo[2.1.1]hexan-4-yl)-4-(methyl-d3)benzenesulfonamide Trifluoroacetate Salt] | ≤ 100 | ≤ 100 | ≤ 100
Cc1ncc(-c2cc(-c3cc(S(=O)(=O)NC45CC(CO)(C4)C5)ccc3C)cnc2N)s1 [Example 87, 3-(6-amino-5-(2-methylthiazol-5-yl)pyridin-3-yl)-N-(3-(hydroxymethyl)bicyclo[1.1.1]pen-tan-1-yl)-4-methylbenzenesulfonamide] | ≤ 100 | ≤ 100 | ≤ 100
Cc1ccc(S(=O)(=O)NC23CC(C#N)(C2)C3)cc1-c1cnc(N)c(-n2ccnn2)n1 [Example 43, 3-(5-Amino-6-(1H-1,2,3-triazol-1-yl)pyrazin-2-yl)-N-(3-cyanobicyclo[1.1.1]pentan-1-yl)-4-methylbenzenesulfonamide Trifluoroacetate Salt] | ≤ 100 | ≤ 500 | ≤ 100
[2H]C([2H])([2H])c1ccc(S(=O)(=O)NC23CCC(C#N)(C2)C3)cc1-c1cnc(N)c(-c2cnco2)n1 [Example 69, 3-(5-Amino-6-(oxazol-5-yl)pyrazin-2-yl)-N-(4-cyanobicyclo[2.1.1]hexan-1-yl)-4-(methyl-d3)benzenesulfonamide trifluoroacetate salt] | ≤ 100 | ≤ 100 | ≤ 100
Cc1ncc(-c2nc(-c3cc(S(=O)(=O)NC45COC(CO)(C4)C5)ccc3C)cnc2N)s1 [Example 4, 3-(5-Amino-6-(2-methylthiazol-5-yl)pyrazin-2-yl)-N-(1-(hydroxymethyl)-2-oxabicyclo[2.1.1]hexan-4-yl)-4-methylbenzenesulfonamide trifluoroacetate salt] | ≤ 100 | ≤ 100 | ≤ 100
Cc1ncc(-c2nc(-c3cc(S(=O)(=O)NC45COC(CO)(C4)C5)cc(F)c3C)cnc2N)s1 [Example 9, 3-(5-Amino-6-(2-methylthiazol-5-yl)pyrazin-2-yl)-5-fluoro-N-(1-(hydroxymethyl)-2-oxabicyclo[2.1.1]hexan-4-yl)-4-methylbenzenesulfonamide trifluoroacetate Salt] | ≤ 100 | ≤ 100 | ≤ 100
Cc1ccc(S(=O)(=O)NC23CC(C(=O)NCC(F)(F)F)(C2)C3)cc1-c1cnc(N)c(-n2cncn2)n1 [Example 35, 3-(3-(5-Amino-6-(1H-1,2,4-triazol-1-yl)pyrazin-2-yl)-4-methylphenylsulfonamido)-N-(2,2,2-trifluoroethyl)bicyclo[1.1.1]pentane-1-carboxamide trifluoroacetate salt] | ≤ 100 | ≤ 500 | ≤ 1000
Cc1ccc(S(=O)(=O)NC23CC(C#N)(C2)C3)cc1-c1cnc(N)c(-n2nccn2)n1 [Example 41, 3-(5-Amino-6-(2H-1,2,3-triazol-2-yl)pyrazin-2-yl)-N-(3-cyanobicyclo[1.1.1]pentan-1-yl)-4-methylbenzenesulfonamide Trifluoroacetate Salt] | ≤ 100 | ≤ 100 | ≤ 100
Cc1ccc(S(=O)(=O)NC23CNC(C2)C3)cc1-c1cnc(N)c(-n2cccn2)n1 [Example 58, 3-(5-Amino-6-(1H-pyrazol-1-yl)pyrazin-2-yl)-N-(2-azabicyclo[2.1.1]hexan-4-yl)-4-methylbenzenesulfonamide trifluoroacetate salt] | ≤ 100 | ≤ 500 | ≤ 1000
[2H]C([2H])([2H])c1ccc(S(=O)(=O)NC23CC(C#N)(C2)C3)cc1-c1cnc(N)c(-c2ccncn2)n1 [Example 79, 3-(5-Amino-6-(pyrimidin-4-yl)pyrazin-2-yl)-N-(3-cyanobicyclo[1.1.1]pentan-1-yl)-4-(methyl-d3)benzenesulfonamide Trifluoroacetate Salt] | ≤ 100 | ≤ 100 | ≤ 100
[2H]C([2H])([2H])c1ccc(S(=O)(=O)NC23CCN(CC2)C3)cc1-c1cnc(N)c(-c2cnc(C)s2)n1 [Example 91, 3-(5-amino-6-(2-methylthiazol-5-yl)pyrazin-2-yl)-N-(1-azabicyclo[2.2.1]heptan-4-yl)-4-(methyl-d3)benzenesulfonamide] | ≤ 100 | ≤ 100 | ≤ 100
Cc1ncc(-c2cc(-c3cc(S(=O)(=O)NC45CCC(C#N)(C4)C5)ccc3C)cnc2N)s1 [Example 85, 3-(6-amino-5-(2-methylthiazol-5-yl)pyridin-3-yl)-N-(4-cyanobicyclo[2.1.1]hexan-1-yl)-4-methylbenzenesulfonamide] | ≤ 100 | ≤ 100 | ≤ 100
Cc1ncc(-c2nc(-c3cc(S(=O)(=O)NC45CCC(CO)(C4)C5)ccc3C)cnc2N)s1 [Example 5, 3-(5-Amino-6-(2-methylthiazol-5-yl)pyrazin-2-yl)-N-(4-(hydroxymethyl)bicyclo[2.1.1]hexan-1-yl)-4-methylbenzenesulfonamide trifluoroacetate salt] | ≤ 100 | ≤ 100 | ≤ 100
Cc1ccc(S(=O)(=O)NC23CNC(C2)C3)cc1-c1cnc(N)c(-n2ccnn2)n1 [Example 59, 3-(5-amino-6-(1H-1,2,3-triazol-1-yl)pyrazin-2-yl)-N-(2-azabicyclo[2.1.1]hexan-4-yl)-4-methylbenzenesulfonamide trifluoroacetate salt] | ≤ 100 | ≤ 500 | ≤ 1000
Cc1ncc(-c2nc(-c3cc(S(=O)(=O)NC45CCC(CO)(CC4)OC5)ccc3C)cnc2N)s1 [Example 6, 3-(5-Amino-6-(2-methylthiazol-5-yl)pyrazin-2-yl)-N-(1-(hydroxymethyl)-2-oxabicyclo[2.2.2]octan-4-yl)-4-methylbenzenesulfonamide trifluoroacetate salt] | ≤ 100 | ≤ 100 | ≤ 100
Cc1ccc(S(=O)(=O)NC23CC(CO)(C2)C3)cc1-c1cnc(N)c(-n2cncn2)n1 [Example 24, 3-(5-Amino-6-(1H-1,2,4-triazol-1-yl)pyrazin-2-yl)-N-(3-(hydroxymethyl)bicyclo[1.1.1]pentan-1-yl)-4-methylbenzenesulfonamide trifluoroacetate salt] | ≤ 100 | ≤ 500 | ≤ 100
Cc1ccc(S(=O)(=O)NC23CCC(CO)(CC2)OC3)cc1-c1cnc(N)c(-c2ccnc(C#N)c2)n1 [Example 19, 3-(5-Amino-6-(2-cyanopyridin-4-yl)pyrazin-2-yl)-N-(1-(hydroxymethyl)-2-oxabicyclo[2.2.2]octan-4-yl)-4-methylbenzenesulfonamide trifluoroacetate salt] | ≤ 100 | ≤ 100 | ≤ 1000
[2H]C([2H])([2H])c1ccc(S(=O)(=O)NC23CCC(C#N)(C2)C3)cc1-c1cnc(N)c(-c2ncco2)n1 [Example 71, 3-(5-Amino-6-(oxazol-2-yl)pyrazin-2-yl)-N-(4-cyanobicyclo[2.1.1]hexan-1-yl)-4-(methyl-d3)benzenesulfonamide trifluoroacetate salt] | ≤ 100 | ≤ 500 | ≤ 500
